# Literature values in patent publication US9145372B2, “Pyridazine derivatives, compositions and methods for treating cognitive impairment” (AGENEBIO, INC., priority 2010, dated 2015).
# Target: T1, α5-containing GABAA R (Homo sapiens, UniProt P18507+P31644)
# T1 sequence (P31644 32-462): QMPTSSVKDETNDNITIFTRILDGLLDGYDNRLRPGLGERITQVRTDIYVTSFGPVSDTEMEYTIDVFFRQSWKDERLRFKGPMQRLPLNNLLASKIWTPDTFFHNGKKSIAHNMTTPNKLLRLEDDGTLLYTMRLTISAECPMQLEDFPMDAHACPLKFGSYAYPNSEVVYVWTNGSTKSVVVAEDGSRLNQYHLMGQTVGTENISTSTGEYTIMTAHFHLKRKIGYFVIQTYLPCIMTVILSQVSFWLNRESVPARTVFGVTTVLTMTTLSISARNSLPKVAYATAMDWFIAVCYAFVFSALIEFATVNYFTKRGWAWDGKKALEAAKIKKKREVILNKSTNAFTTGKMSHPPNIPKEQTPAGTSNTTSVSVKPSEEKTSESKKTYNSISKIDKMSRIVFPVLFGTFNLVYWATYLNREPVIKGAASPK
# T1 sequence (P28472 26-473 partner): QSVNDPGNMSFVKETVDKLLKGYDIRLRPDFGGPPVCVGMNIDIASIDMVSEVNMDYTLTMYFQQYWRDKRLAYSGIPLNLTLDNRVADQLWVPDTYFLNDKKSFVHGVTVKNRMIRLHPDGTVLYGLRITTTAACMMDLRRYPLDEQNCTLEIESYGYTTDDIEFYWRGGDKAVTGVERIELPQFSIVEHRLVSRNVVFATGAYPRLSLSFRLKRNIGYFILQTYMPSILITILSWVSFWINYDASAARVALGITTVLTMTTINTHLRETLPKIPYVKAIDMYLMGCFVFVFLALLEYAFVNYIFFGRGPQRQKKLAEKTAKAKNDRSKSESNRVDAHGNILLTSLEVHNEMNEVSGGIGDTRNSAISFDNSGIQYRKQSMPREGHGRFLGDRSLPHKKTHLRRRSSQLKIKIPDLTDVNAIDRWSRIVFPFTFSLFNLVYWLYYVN
# T1 sequence (P18507 40-467 limits assumed): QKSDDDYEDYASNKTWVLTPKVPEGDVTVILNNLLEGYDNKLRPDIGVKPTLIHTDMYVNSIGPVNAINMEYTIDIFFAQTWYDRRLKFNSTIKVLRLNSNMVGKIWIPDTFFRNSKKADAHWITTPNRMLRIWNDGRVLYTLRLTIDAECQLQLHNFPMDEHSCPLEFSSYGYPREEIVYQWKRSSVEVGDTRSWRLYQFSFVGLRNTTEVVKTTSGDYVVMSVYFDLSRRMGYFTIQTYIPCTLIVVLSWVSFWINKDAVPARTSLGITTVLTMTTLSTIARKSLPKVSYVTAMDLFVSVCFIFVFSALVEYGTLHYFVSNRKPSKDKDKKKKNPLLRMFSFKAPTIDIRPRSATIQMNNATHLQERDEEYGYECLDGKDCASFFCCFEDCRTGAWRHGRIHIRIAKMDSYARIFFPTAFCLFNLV
# Conditions: at GABA EC20; van Niel et al.; cited from earlier work
smiles,measurement,value
"COC(=O)c1c(-c2ccccc2)cnnc1-c1ccccc1 [methyl 3,5-diphenylpyridazine-4-carboxylate]",α5 in vitro efficacy (EC20),+27
